Reference: patent publication US20250262299A1, “DOSING FOR TREATMENT WITH ANTI-FCRH5/ANTI-CD3 BISPECIFIC ANTIBODIES” (Genentech, Inc., priority 2022, published 2025)

Legend:
Fc (Fcγ) receptors = settings: N297G non-glycosylated antibody; cited from earlier work
R/R MM = assay: Study GO39775 / cevostamab monotherapy clinical studies in patients with R/R MM; type: in vivo, human
Description: As of November 2021, two studies are ongoing to confirm the safety and efficacy of cevostamab in this patient population. As such, combination with lenalidomide is expected to deepen and prolong response in patients in remission on the following basis: • FcRH5 is a cell-surface antigen whose expression is restricted to cells of the B linage, including plasma cells. […] Rationale for Cevostamab Dose
The dosing schedule has been modified from a 21-day cycle to a 28-day cycle to accommodate lenalidomide dosing and to ease patient treatment burden. […] A lower target dose of 90 mg Q2W will be the starting point of dose escalation towards 132 mg. These doses have been selected based on the full body of evidence available across cevostamab studies, considering PD, PK, safety, and efficacy data.

[1] = Compatibility testing in extension sets; type: physicochemical; settings: IV infusion extension sets
Description: Cevostamab will be administered as a fixed dose independent of body weight. Cevostamab will be administered to patients by IV infusion using standard IV bags where applicable. […] The drug product will be delivered by IV bag infusion, with a final cevostamab volume determined by the dose.

[2] = system: human MM cell lines and primary human MM plasma cells; settings: cells with a wide range of FcRH5 expression levels, including minimal expression; cited from earlier work
MM = settings: lenalidomide maintenance, active vs. control; cited from earlier work
[3] = Study GO39775, 0.3/3.6/160 mg, patients with R/R MM
[4] = Study GO39775, preliminary findings
[5] = cevostamab monotherapy, patients with R/R MM

cevostamab: Fc-engineered, humanized, full-length non-glycosylated IgG1 kappa T-cell-dependent bispecific antibody (TDB) that binds FcRH5 and CD3
binding to Fc (Fcγ) receptors (Fc (Fcγ) receptors): minimal binding | safety of target dose (R/R MM; Study GO39775, 160 mg every three weeks (Q3W)): found to be safe | induction of response with double step-up dosing (R/R MM; [3]): effective at inducing a response | safety of double step-up dosing (R/R MM; [3]): safe | clinical response in patients with the lowest FcRH5 expression (R/R MM; [4]): Clinical response has been observed | objective response in relation to baseline FcRH5 expression (R/R MM; [4]): able to achieve an objective response to cevostamab treatment regardless of baseline FcRH5 expression | efficacy (R/R MM; [5]): shown efficacy | safety profile (R/R MM; [5]): acceptable safety profile | stability in extension sets [1]: stable in extension sets | cell killing [2]: broadly active in cell killing

Nc1cccc2c1CN(C1CCC(=O)NC1=O)C2=O (stereo not drawn) [lenalidomide]
overall survival (OS) (MM): statistically significant increase | progression-free survival (PFS) (MM): statistically significant increase
